Reference: patent publication US9029384B2, “Phosphatidylinositol 3-kinase inhibitors” (Gilead Calistoga LLC, priority 2012, dated 2015)
Like-named read-outs stand apart in the source and are kept apart here.

Key:
[1] = target: T1, PI3Kδ (Homo sapiens, UniProt O00329); experiment: Enzymatic activity of PI3K isoforms, TR-FRET assay (PIP3 formation); type: biochemical; conditions: read-out: IC50
T1 construct: made in house
From the text: Enzymatic Activity of PI3K Isoforms
The TR-FRET assay was used to monitor formation of the product 3,4,5-inositol triphosphate molecule (PIP3) as it competed with fluorescently labeled PIP3 for binding to the GRP-1 pleckstrin homology domain protein. An increase in […] product results in a decrease in TR-FRET signal as the labeled fluorophore is displaced from the GRP-1 protein binding site.
Class I PI3K isoforms were expressed and purified as heterodimeric recombinant proteins. All assay reagents and buffers for the TR-FRET assay were purchased from Millipore. […] After an assay reaction time of 30 minutes at 25° C., reactions were terminated with a final concentration of 10 mM EDTA, 10 nM labeled-PIP3, and 35 nM Europium labeled GRP-1 detector protein before reading TR-FRET on an Envision plate reader (Ex: 340 nm; Em: 615/665 nm; 100 μs delay and 500 μs read window).
Data are normalized based on a positive (1 uM wortmanin) and negative (DMSO) controls. The α, β, δ, and γ IC50 values were calculated from the fit of the dose-response curves to a four-parameter equation. IC50 are reported in units of nM.
IC50 values were obtained for all PI3K isoforms (α, β, δ, and γ), and Table 2 summarizes the IC50 data collected for PI3Kδ in this Example B1.

[2] = tested on: basophils; experiment: Basophil activation in human whole blood (Flow2 CAST kit, CD63 positive cells); type: cell-based; conditions: basophils activated with anti-FcεRI mAb or fMLP, geometric mean
Method: Effect on basophil activation was measured in human whole blood using the Flow2 CAST® kit (Buhlmann Laboratories AG, Baselstrasse, Switzerland) following the protocol provided by the manufacturer with minor modifications. Human whole blood was collected into K2-EDTA venipuncture tubes. Whole blood samples were treated with either DMSO (0.3% final) or a serial dilution of compounds in DMSO for 60 minutes at 37° C. Basophils were then activated either with anti-FcεRI mAb or with fMLP. To activate basophils using the anti-FcεRI mAb; 50 μl of whole blood was mixed with 110 μl of stimulation buffer (B-BAT-STB) and 20 μl of anti-FcεRI (B-BAT-STCON). To activate basophils with fMLP; 50 μl of whole blood was mixed with 80 μl of stimulation buffer (B-BAT-STB) and 50 μl of fMLP (B-CCR-FMLP). Stimulation buffer was used as a negative control. 20 μl of the staining reagent (combination of anti-human CD63-FITC and anti-human CCR3-PE mAbs) was then added to each tube. […] Subsequently, erythrocytes were lysed and fixed by the addition of 2 ml of lysing solution (B-BAT-LYR) for 10 min at room temperature. Cells were pelleted by centrifugation at 1200 rpm for 10 min at room temperature in a swing-out rotor. Supernatant was aspirated and cell pellet resuspended in 400 μl of wash buffer. Flow cytometric analysis of the basophil activation was performed on a FC500MPL flow cytometer (Beckman Coulter Inc., Fullerton, Calif.). CCR3-staining and side scatter were applied to gate at least 200 basophils that expressed a high density of CCR3. The percent CD63 positive cells within the gated basophil population were determined in different treatment groups and normalized to the vehicle control (0.3% DMSO) with anti-FcεRI mAb of fMLP stimulus as 100%. Final compound concentration was adjusted to correct for dilution effect of added reagents. The EC50 values were calculated from the analysis of the dose-response curves to a four-parameter equation. All EC50 values represent geometric mean values and are reported in units of nM.

[3] = PI3Kδ, TR-FRET, 2×Km ATP, 10 μM PIP2

T1 sequence (O00329 whole entry, canonical isoform): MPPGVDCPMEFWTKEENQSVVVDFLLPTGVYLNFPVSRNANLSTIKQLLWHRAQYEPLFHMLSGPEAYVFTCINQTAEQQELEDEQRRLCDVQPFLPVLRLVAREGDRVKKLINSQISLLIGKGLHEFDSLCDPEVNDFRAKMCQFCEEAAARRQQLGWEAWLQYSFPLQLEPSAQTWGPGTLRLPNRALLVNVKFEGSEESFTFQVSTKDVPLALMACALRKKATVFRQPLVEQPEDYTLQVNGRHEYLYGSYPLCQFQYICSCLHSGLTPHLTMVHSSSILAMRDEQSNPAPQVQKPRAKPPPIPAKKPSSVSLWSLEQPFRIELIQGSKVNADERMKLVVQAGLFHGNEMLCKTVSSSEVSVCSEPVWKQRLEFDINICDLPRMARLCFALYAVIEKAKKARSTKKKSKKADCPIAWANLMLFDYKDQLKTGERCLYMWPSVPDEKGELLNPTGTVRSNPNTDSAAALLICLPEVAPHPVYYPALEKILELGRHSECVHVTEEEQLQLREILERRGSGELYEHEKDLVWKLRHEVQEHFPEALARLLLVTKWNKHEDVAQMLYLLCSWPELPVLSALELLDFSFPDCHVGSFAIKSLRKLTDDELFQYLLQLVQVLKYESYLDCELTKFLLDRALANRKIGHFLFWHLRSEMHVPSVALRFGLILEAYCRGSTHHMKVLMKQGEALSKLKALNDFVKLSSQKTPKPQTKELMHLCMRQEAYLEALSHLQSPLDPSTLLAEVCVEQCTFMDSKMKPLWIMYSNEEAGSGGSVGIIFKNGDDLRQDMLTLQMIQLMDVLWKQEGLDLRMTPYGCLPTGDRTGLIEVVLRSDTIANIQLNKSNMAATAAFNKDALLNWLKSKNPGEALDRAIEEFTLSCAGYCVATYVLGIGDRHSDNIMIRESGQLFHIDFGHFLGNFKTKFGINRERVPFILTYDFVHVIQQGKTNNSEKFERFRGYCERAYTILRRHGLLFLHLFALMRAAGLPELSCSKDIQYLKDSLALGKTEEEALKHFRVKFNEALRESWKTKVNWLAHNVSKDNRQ
T1 sequence (P27986 whole entry partner, canonical isoform): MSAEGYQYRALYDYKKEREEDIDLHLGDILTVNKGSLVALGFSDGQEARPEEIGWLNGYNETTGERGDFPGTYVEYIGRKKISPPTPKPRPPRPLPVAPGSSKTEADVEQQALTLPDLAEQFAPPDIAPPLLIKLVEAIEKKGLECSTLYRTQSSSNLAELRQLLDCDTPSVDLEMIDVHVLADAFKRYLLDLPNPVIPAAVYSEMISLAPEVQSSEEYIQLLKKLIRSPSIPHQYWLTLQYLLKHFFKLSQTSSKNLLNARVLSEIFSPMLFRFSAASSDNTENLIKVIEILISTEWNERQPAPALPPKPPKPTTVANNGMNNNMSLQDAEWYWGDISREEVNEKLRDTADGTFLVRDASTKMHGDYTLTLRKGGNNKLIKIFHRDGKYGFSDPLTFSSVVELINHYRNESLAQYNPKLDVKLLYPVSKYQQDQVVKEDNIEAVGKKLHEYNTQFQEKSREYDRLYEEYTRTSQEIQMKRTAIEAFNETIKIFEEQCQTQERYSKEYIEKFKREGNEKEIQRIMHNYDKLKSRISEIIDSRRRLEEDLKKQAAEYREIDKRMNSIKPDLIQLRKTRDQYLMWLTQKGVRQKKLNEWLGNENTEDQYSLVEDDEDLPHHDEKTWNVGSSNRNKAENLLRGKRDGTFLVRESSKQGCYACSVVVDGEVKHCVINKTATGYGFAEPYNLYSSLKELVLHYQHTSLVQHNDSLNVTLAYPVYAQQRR

Compound | IC50 [1, 3] [µM] | EC50 [2] [µM] | EC50 ([2]; Homo sapiens) [µM] | IC50 [1] [µM]
CC(Nc1nc(N)nc(N)c1F)c1nc2cccc(Cl)c2c(=O)n1-c1ccccc1 (single isomer, unassigned) [Compound 194a] | > 0.05 | > 0.05 | – | –
CC(Nc1nc(N)nc(N)c1C#N)c1nc2cccc(Cl)c2c(=O)n1-c1cc(Cl)cc(C(F)F)c1 (single isomer, unassigned) [Compound 115a] | 0.001 to 0.01 | – | 0.01 to 0.05 | –
COc1cccc2nc(C(C)Nc3nc(N)nc(N)c3C#N)n(-c3ccccc3)c(=O)c12 (single isomer, unassigned) [Compound 111a] | 0.01 to 0.05 | – | > 0.05 | –
CC(Nc1nc(N)nc(N)c1C#N)c1nc2cccc(Br)c2c(=O)n1-c1ccccc1 (single isomer, unassigned) [Compound 129a] | < 0.001 | – | < 0.001 | –
CC(Nc1nc(N)nc(N)c1C#N)c1nc2cccc(O)c2c(=O)n1-c1ccccc1 (single isomer, unassigned) [Compound 2a] | < 0.001 | – | 0.001 to 0.01 | –
CC(Nc1nc(N)nc(N)c1C#N)c1nc2cccc(S(C)(=O)=O)c2c(=O)n1-c1ccccc1F (single isomer, unassigned) [Compound 142a-1] | 0.001 to 0.01 | – | 0.01 to 0.05 | –
CC(Nc1nc(N)nc(N)c1C#N)c1nc2c(C#N)cc(F)cc2c(=O)n1-c1cc(F)cc(F)c1 (single isomer, unassigned) [Compound 161a] | 0.01 to 0.05 | – | 0.01 to 0.05 | –
CC(Nc1nc(N)nc(N)c1C#N)c1cc2cccc(Cl)c2c(=O)n1-c1ccccc1 (single isomer, unassigned) [Compound 196a] | – | < 0.001 | – | < 0.001
CC(Nc1nc(N)nc(N)c1C#N)c1nc2ccc(F)c(Cl)c2c(=O)n1-c1cc(F)cc(C(F)F)c1 (single isomer, unassigned) [Compound 141a] | 0.01 to 0.05 | – | 0.01 to 0.05 | –
CC(Nc1nc(N)nc(N)c1Cl)c1nc2cccc(S(C)(=O)=O)c2c(=O)n1-c1cccc(F)c1 (single isomer, unassigned) [Compound 153a] | 0.001 to 0.01 | – | 0.01 to 0.05 | –
Cc1c(C(F)F)cccc1-n1c(C(C)Nc2nc(N)nc(N)c2C#N)nc2cccc(Cl)c2c1=O (single isomer, unassigned) [Compound 189a-2] | < 0.001 | 0.001 to 0.01 | – | –
CC(Nc1nc(N)nc(N)c1C#N)c1nc2c(F)cc(F)cc2c(=O)n1-c1cc(F)cc(F)c1 (single isomer, unassigned) [Compound 70a] | 0.01 to 0.05 | – | 0.001 to 0.01 | –
CC(Nc1nc(N)nc(N)c1C#N)c1nc2cccc(S(C)(=O)=O)c2c(=O)n1-c1ccccc1 (single isomer, unassigned) [Compound 95a] | 0.001 to 0.01 | – | 0.01 to 0.05 | –
CC(Nc1nc(N)nc(N)c1C#N)c1nc2cccc(Cl)c2c(=O)n1-c1cc(F)cc(C(F)(F)F)c1 (single isomer, unassigned) [Compound 45a] | 0.001 to 0.01 | – | > 0.05 | –
CC(Nc1nc(N)nc(N)c1C#N)c1nc2cccc(S(C)(=O)=O)c2c(=O)n1-c1c(F)cccc1F (single isomer, unassigned) [Compound 146a] | 0.001 to 0.01 | – | > 0.05 | –
CC[C@H](C)[C@H](Nc1nc(N)nc(N)c1C#N)c1nc2cccc(Cl)c2c(=O)n1-c1cc(F)cc(F)c1 [Compound 164a, 2,4-diamino-6-(((1S,2S)-1-(5-chloro-3-(3,5-difluorophenyl)-4-oxo-3,4-dihydroquinazolin-2-yl)-2-methylbutyl)amino)pyrimidine-5-carbonitrile] | 0.001 to 0.01 | – | > 0.05 | –
CC(Nc1nc(N)nc(N)c1C#N)c1nc2cccc(S(C)(=O)=O)c2c(=O)n1-c1cccc(C(F)F)c1 (single isomer, unassigned) [Compound 116a] | 0.001 to 0.01 | – | > 0.05 | –
COc1cccc2c(=O)n(-c3ccccc3)c(C(C)Nc3nc(N)nc(N)c3C#N)nc12 (single isomer, unassigned) [Compound 156a] | > 0.05 | – | 0.01 to 0.05 | –
Cc1c(F)cc(F)cc1-n1c(C(C)Nc2nc(N)nc(N)c2C#N)nc2cccc(Cl)c2c1=O (single isomer, unassigned) [Compound 200a-2] | 0.01 to 0.05 | 0.001 to 0.01 | – | –

Results, then the compound that gave them:

IC50 [1, 3] [µM] | EC50 [2] [µM] | EC50 ([2]; Homo sapiens) [µM] | IC50 [1] [µM] | Compound
< 0.001 | – | < 0.001 | – | Cc1ccc(F)cc1-n1c(C(C)Nc2nc(N)nc(N)c2C#N)nc2cccc(Cl)c2c1=O (single isomer, unassigned) [Compound 201a-1]
< 0.001 | – | 0.001 to 0.01 | – | Cc1ccc(F)c2nc(C(C)Nc3nc(N)nc(N)c3C#N)n(-c3cccc(C#N)c3)c(=O)c12 (single isomer, unassigned) [Compound 64a]
< 0.001 | < 0.001 | – | – | COc1cccc(-n2c(C(C)Nc3nc(N)nc(N)c3C#N)nc3cccc(Cl)c3c2=O)c1 (single isomer, unassigned) [Compound 206a]
0.001 to 0.01 | < 0.001 | – | – | COc1cc(F)cc(-n2c(C(C)Nc3nc(N)nc(N)c3C#N)nc3cccc(Cl)c3c2=O)c1 (single isomer, unassigned) [Compound 205a]
0.001 to 0.01 | – | 0.01 to 0.05 | – | Cc1cccc2c(=O)n(-c3ccccc3)c(C(C)Nc3nc(N)nc(N)c3C#N)nc12 (single isomer, unassigned) [Compound 3a]
0.001 to 0.01 | 0.01 to 0.05 | – | – | COc1ccc(C)c(-n2c(C(C)Nc3nc(N)nc(N)c3C#N)nc3cccc(Cl)c3c2=O)c1 (single isomer, unassigned) [Compound 187a-1]
0.01 to 0.05 | – | > 0.05 | – | CC(C)CC(Nc1nc(N)nc(N)c1C#N)c1nc2cccc(Cl)c2c(=O)n1-c1cccc(C#N)c1 (single isomer, unassigned) [Compound 167a]
0.001 to 0.01 | 0.01 to 0.05 | – | – | Cc1ccc(C)c(-n2c(C(C)Nc3nc(N)nc(N)c3C#N)nc3cccc(Cl)c3c2=O)c1 (single isomer, unassigned) [Compound 191a-1]
< 0.001 | < 0.001 | – | – | Cc1c(F)cccc1-n1c(C(C)Nc2nc(N)nc(N)c2C#N)nc2cccc(Cl)c2c1=O (single isomer, unassigned) [Compound 199a-1]
0.001 to 0.01 | > 0.05 | – | – | Cc1c(F)cccc1-n1c(C(C)Nc2nc(N)nc(N)c2C#N)nc2cccc(Cl)c2c1=O (single isomer, unassigned) [Compound 199a-2]
0.01 to 0.05 | – | 0.01 to 0.05 | – | CC(Nc1nc(N)nc(N)c1C#N)c1nc2c(F)ccc(C#N)c2c(=O)n1-c1cc(F)cc(F)c1 (single isomer, unassigned) [Compound 125a]
0.001 to 0.01 | – | 0.001 to 0.01 | – | CC(Nc1nc(N)nc(N)c1C#N)c1nc2c(F)cccc2c(=O)n1-c1ccccc1 (single isomer, unassigned) [Compound 58a]
0.001 to 0.01 | 0.001 to 0.01 | – | – | Cc1ccc(C)c(-n2c(C(C)Nc3nc(N)nc(N)c3C#N)nc3cccc(Cl)c3c2=O)c1 (single isomer, unassigned) [Compound 191a-2]
0.001 to 0.01 | > 0.05 | – | – | Cc1c(F)ccc(-n2c(C(C)Nc3nc(N)nc(N)c3C#N)nc3cccc(Cl)c3c2=O)c1C (single isomer, unassigned) [Compound 203a-1]
< 0.001 | – | 0.001 to 0.01 | – | CC(Nc1nc(N)nc(N)c1C#N)c1nc2c(F)ccc(F)c2c(=O)n1-c1ccccc1 (single isomer, unassigned) [Compound 59a]
0.01 to 0.05 | – | > 0.05 | – | COc1cc(-n2c(C(C)Nc3nc(N)nc(N)c3C#N)nc3cccc(Cl)c3c2=O)ccc1C (single isomer, unassigned) [Compound 184a]
0.001 to 0.01 | – | 0.01 to 0.05 | – | COc1cc(-n2c(C(C)Nc3nc(N)nc(N)c3C#N)nc3cccc(Cl)c3c2=O)ccc1F (single isomer, unassigned) [Compound 186a]
< 0.001 | – | > 0.05 | – | Cc1cccc2c(=O)n(-c3cccc(Cl)c3)c(C(C)Nc3nc(N)nc(N)c3C#N)nc12 (single isomer, unassigned) [Compound 6a]
